Measurements: patent publication US20210253568A1, “AZAINDOLE DERIVATIVES AS RHO-KINASE INHIBITORS” (CHIESI FARMACEUTICI S.p.A., priority 2018, published 2021)

Assays:
ROCK 2 = ROCK 2 (Homo sapiens, UniProt O75116); assay: In vitro Rho kinase inhibitory activity assay (ADP-Glo), Rho kinase 2; format: biochemical; conditions: Ki by Cheng-Prusoff from IC50; 10 μM ATP, 25° C., expressed as range of activity
Description: (§1) The effectiveness of compounds of the present invention to inhibit Rho kinase activity can be determined in a 10 μl assay containing 40 mM Tris pH7.5, 20 mM MgCl2 0.1 mg/mi BSA, 50 μM DTT and 2.5 μM peptide substrate (Myelin Basic Protein) using an ADP-Glo kit (Promega). Compounds were dissolved in DMSO such that the final concentration of DMSO was 1% in the assay. All reactions/incubations are performed at 25° C. Compound (2 ul) and either Rho kinase 1 or 2 (4 μl) were mixed and incubated for 30 mins. Reactions were initiated by addition of ATP (4 μl) such that the final concentration of ATP in the assay was 10 μM. After a 1 hour incubation 10 μl of ADP-Glo Reagent was added and after a further 45 minute incubation 20 ul of Kinase Detection Buffer was added and the mixture incubated for a further 30 minutes. The luminescent signal was measured on a luminometer. […] Compounds were tested in dose-response format and the inhibition of kinase activity was calculated at each concentration of compound. To determine the IC50 (concentration of compound required to inhibit 50% of the enzyme activity) data were fit to a plot of % inhibition vs Log10 compound concentration using a sigmoidal fit with a variable slope and fixing the maximum to 100% and the minimum to 0%. To determine the Ki values the Cheng-Prusoff equation was utilized (Ki=IC50/(1+[S]/Km).

ROCK 1 = ROCK 1 (Homo sapiens, UniProt Q13464); assay: In vitro Rho kinase inhibitory activity assay (ADP-Glo), Rho kinase 1; format: biochemical; conditions: Ki by Cheng-Prusoff from IC50; 10 μM ATP, 25° C., expressed as range of activity
Sequence of ROCK 1 (Q13464 whole entry): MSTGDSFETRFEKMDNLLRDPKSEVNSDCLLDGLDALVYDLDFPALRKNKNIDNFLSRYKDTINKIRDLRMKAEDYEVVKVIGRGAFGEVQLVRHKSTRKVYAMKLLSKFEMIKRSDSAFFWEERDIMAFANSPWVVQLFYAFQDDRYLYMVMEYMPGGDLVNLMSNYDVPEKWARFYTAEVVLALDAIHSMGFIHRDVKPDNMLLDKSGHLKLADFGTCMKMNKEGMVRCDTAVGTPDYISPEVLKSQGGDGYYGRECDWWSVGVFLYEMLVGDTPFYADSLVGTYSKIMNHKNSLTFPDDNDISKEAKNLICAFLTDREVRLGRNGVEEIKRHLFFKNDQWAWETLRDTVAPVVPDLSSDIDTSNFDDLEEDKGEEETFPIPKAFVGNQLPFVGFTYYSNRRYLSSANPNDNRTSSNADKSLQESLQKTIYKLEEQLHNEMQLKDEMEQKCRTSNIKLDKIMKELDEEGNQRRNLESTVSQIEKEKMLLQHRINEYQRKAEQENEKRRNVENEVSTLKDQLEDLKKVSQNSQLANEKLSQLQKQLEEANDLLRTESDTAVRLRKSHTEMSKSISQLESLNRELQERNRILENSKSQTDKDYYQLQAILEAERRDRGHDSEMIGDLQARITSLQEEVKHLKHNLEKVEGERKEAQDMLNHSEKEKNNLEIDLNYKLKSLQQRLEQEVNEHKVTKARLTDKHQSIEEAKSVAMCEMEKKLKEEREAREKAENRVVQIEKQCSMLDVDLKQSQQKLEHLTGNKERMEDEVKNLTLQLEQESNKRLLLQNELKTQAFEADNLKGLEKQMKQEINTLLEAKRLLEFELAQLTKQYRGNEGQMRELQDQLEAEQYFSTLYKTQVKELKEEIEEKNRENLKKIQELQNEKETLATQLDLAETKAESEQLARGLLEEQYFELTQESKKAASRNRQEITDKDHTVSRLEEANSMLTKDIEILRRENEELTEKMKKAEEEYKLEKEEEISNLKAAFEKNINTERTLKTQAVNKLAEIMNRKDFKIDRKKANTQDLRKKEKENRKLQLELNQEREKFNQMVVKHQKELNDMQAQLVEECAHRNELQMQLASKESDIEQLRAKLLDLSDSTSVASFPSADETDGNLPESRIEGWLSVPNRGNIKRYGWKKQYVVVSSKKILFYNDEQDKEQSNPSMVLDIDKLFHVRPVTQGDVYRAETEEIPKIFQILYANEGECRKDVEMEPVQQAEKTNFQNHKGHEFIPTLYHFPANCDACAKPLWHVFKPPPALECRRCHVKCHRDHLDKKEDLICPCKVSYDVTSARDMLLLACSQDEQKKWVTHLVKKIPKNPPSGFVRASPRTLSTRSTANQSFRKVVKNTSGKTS
Description: as §1

Sequence of ROCK 2 (O75116 whole entry): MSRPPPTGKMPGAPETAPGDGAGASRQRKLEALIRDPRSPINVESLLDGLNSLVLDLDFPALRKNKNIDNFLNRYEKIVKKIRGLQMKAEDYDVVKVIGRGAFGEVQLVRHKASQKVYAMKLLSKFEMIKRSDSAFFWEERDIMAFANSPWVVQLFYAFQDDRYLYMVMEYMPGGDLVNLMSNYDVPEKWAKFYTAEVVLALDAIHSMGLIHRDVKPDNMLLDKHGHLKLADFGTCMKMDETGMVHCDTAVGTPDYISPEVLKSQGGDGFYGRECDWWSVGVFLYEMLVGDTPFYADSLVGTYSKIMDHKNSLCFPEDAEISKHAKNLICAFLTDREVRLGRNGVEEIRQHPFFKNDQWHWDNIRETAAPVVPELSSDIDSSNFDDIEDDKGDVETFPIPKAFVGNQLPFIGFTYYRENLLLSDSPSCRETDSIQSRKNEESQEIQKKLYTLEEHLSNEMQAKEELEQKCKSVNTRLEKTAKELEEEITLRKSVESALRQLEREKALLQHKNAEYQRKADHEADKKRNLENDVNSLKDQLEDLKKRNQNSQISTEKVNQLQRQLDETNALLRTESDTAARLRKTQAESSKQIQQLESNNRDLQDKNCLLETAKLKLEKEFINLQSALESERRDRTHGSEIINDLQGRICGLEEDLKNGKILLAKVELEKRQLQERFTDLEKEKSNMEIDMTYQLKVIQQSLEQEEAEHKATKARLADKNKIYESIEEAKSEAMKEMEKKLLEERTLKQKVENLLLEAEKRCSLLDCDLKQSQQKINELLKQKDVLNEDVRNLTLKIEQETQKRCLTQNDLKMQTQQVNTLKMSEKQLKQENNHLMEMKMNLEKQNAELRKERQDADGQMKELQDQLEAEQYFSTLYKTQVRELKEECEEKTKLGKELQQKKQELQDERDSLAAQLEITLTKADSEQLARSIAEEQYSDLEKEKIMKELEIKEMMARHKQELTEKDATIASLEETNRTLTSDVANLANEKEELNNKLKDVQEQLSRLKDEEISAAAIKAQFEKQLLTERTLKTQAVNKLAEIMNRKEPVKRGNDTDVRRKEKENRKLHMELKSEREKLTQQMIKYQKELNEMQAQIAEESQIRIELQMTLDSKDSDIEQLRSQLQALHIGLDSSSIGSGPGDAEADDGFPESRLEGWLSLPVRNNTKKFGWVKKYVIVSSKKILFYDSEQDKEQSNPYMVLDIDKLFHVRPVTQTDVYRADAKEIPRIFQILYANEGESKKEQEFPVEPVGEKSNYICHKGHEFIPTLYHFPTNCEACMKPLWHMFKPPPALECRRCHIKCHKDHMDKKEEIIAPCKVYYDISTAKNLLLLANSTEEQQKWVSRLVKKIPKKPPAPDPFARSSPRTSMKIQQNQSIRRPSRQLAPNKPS

With `c1cc(-c2c[nH]c3nccc(Oc4ccc5c(c4)CNCC5)c23)ccn1` [Example 1, 7-((3-(pyridin-4-yl)-1H-pyrrolo[2,3-b]pyridin-4-yl)oxy)-1,2,3,4-tetrahydroisoquinoline] the Ki (ROCK 2) was < 3 nM and the Ki (ROCK 1) was < 3 nM.

For `NCc1ccc(Oc2ccnc3[nH]cc(-c4cncc(OCc5ccccc5)c4)c23)cc1` [Example 2, (4-((3-(5-(benzyloxy)pyridin-3-yl)-1H-pyrrolo[2,3-b]pyridin-4-yl)oxy)phenyl)methanamine], the Ki (ROCK 2) was > 30 nM and the Ki (ROCK 1) was > 30 nM.

`NCc1ccc(Oc2ccnc3[nH]cc(-c4cccc(OCc5ccccc5)c4)c23)cc1` [Example 3, (4-((3-(3-(benzyloxy)phenyl)-1H-pyrrolo[2,3-b]pyridin-4-yl)oxy)phenyl)methanamine] was tested, and the Ki (ROCK 2) was > 30 nM and the Ki (ROCK 1) was > 30 nM.

For `Cc1ccc(S(=O)(=O)CCNc2cc(-c3c[nH]c4nccc(Oc5c(F)cc(CN)cc5F)c34)ncn2)cc1` [Example 4, 6-(4-(4-(aminomethyl)-2,6-difluorophenoxy)-1H-pyrrolo[2,3-b]pyridin-3-yl)-N-(2-tosylethyl)pyrimidin-4-amine], the Ki (ROCK 2) was < 3 nM and the Ki (ROCK 1) was < 3 nM.

For `NCc1cc(F)c(Oc2ncnc3[nH]cc(-c4ccnc(NCc5ccccc5)c4)c23)c(F)c1` [Example 5, 4-(4-(4-(aminomethyl)-2,6-difluorophenoxy)-7H-pyrrolo[2,3-d]pyrimidin-5-yl)-N-benzylpyridin-2-amine], the Ki (ROCK 2) was < 3 nM and the Ki (ROCK 1) was < 3 nM.

With `Fc1cc2c(cc1Oc1ncnc3[nH]cc(-c4ccnc(NCc5ccccc5)c4)c13)CNCC2` [Example 6, N-benzyl-4-(4-((6-fluoro-1,2,3,4-tetrahydroisoquinolin-7-yl)oxy)-7H-pyrrolo[2,3-d]pyrimidin-5-yl)pyridin-2-amine] the Ki (ROCK 2) was < 3 nM and the Ki (ROCK 1) was 3 to 30 nM.

`NCc1cc(F)c(Oc2ccnc3[nH]cc(-c4ccnc(NCc5cccnc5)c4)c23)c(F)c1` [Example 7, 4-(4-(4-(aminomethyl)-2,6-difluorophenoxy)-1H-pyrrolo[2,3-b]pyridin-3-yl)-N-(pyridin-3-ylmethyl)pyridin-2-amine] was tested, and the Ki (ROCK 2) was < 3 nM and the Ki (ROCK 1) was < 3 nM.

In the case of `NCc1cc(F)c(Oc2ccnc3[nH]cc(-c4ccnc(NCC5CC5)c4)c23)c(F)c1` [Example 8, 4-(4-(4-(aminomethyl)-2,6-difluorophenoxy)-1H-pyrrolo[2,3-b]pyridin-3-yl)-N-(cyclopropylmethyl)pyridin-2-amine], the Ki (ROCK 2) is reported as < 3 nM and the Ki (ROCK 1) is reported as < 3 nM.

`c1ccc(CNc2cc(-c3c[nH]c4nccc(Oc5ccc6c(c5)CNCC6)c34)on2)cc1` [Example 9, N-benzyl-5-(4-((1,2,3,4-tetrahydroisoquinolin-7-yl)oxy)-1H-pyrrolo[2,3-b]pyridin-3-yl)isoxazol-3-amine] was tested, and the Ki (ROCK 2) was < 3 nM and the Ki (ROCK 1) was 3 to 30 nM.

In the case of `O=C(NC1CC1)C1CCN(c2cc(-c3c[nH]c4nccc(Oc5ccc6c(c5)CNCC6)c34)ccn2)C1` (stereo not shown) [Example 10, N-cyclopropyl-1-(4-(4-((1,2,3,4-tetrahydroisoquinolin-7-yl)oxy)-1H-pyrrolo[2,3-b]pyridin-3-yl)pyridin-2-yl)pyrrolidine-3-carboxamide], the Ki (ROCK 2) is reported as < 3 nM and the Ki (ROCK 1) is reported as < 3 nM.

With `NCc1cc(F)c(Oc2ccnc3[nH]cc(-c4ccnc(NC(=O)C5CC5)c4)c23)c(F)c1` [Example 11, N-(4-(4-(4-(aminomethyl)-2,6-difluorophenoxy)-1H-pyrrolo[2,3-b]pyridin-3-yl)pyridin-2-yl)cyclopropanecarboxamide] the Ki (ROCK 2) was < 3 nM and the Ki (ROCK 1) was < 3 nM.

With `O=C(Cn1cc(-c2c[nH]c3nccc(Oc4ccc5c(c4)CNCC5)c23)nn1)NCc1ccccc1` [Example 12, N-benzyl-2-(4-(4-((1,2,3,4-tetrahydroisoquinolin-7-yl)oxy)-1H-pyrrolo[2,3-b]pyridin-3-yl)-1H-1,2,3-triazol-1-yl)acetamide] the Ki (ROCK 2) was < 3 nM and the Ki (ROCK 1) was 3 to 30 nM.

With `O=C(NCc1ccccc1)c1cc(-c2c[nH]c3nccc(Oc4ccc5c(c4)CNCC5)c23)on1` [Example 13, N-benzyl-5-(4-((1,2,3,4-tetrahydroisoquinolin-7-yl)oxy)-1H-pyrrolo[2,3-b]pyridin-3-yl)isoxazole-3-carboxamide] the Ki (ROCK 2) was < 3 nM and the Ki (ROCK 1) was 3 to 30 nM.

In the case of `O=C(Cc1ccccc1)Nc1nnc(-c2c[nH]c3nccc(Oc4ccc5c(c4)CNCC5)c23)o1` [Example 14, 2-phenyl-N-(5-(4-((1,2,3,4-tetrahydroisoquinolin-7-yl)oxy)-1H-pyrrolo[2,3-b]pyridin-3-yl)-1,3,4-oxadiazol-2-yl)acetamide], the Ki (ROCK 2) is reported as < 3 nM and the Ki (ROCK 1) is reported as < 3 nM.

In the case of `NCc1ccc(Oc2ccnc3[nH]cc(-c4ccnc(NCc5ccccc5)c4)c23)cc1` [Example 15, 4-(4-(4-(aminomethyl)phenoxy)-1H-pyrrolo[2,3-b]pyridin-3-yl)-N-benzylpyridin-2-amine], the Ki (ROCK 2) is reported as < 3 nM and the Ki (ROCK 1) is reported as 3 to 30 nM.

In the case of `c1cncc(CNc2cc(-c3c[nH]c4nccc(Oc5ccc6c(c5)CNCC6)c34)ccn2)c1` [Example 16, N-(pyridin-3-ylmethyl)-4-(4-((1,2,3,4-tetrahydroisoquinolin-7-yl)oxy)-1H-pyrrolo[2,3-b]pyridin-3-yl)pyridin-2-amine], the Ki (ROCK 2) is reported as < 3 nM and the Ki (ROCK 1) is reported as < 3 nM.

In the case of `c1cc(-c2c[nH]c3nccc(Oc4ccc5c(c4)CNCC5)c23)cc(N2CCOCC2)n1` [Example 17, 4-(4-(4-((1,2,3,4-tetrahydroisoquinolin-7-yl)oxy)-1H-pyrrolo[2,3-b]pyridin-3-yl)pyridin-2-yl)morpholine], the Ki (ROCK 2) is reported as < 3 nM and the Ki (ROCK 1) is reported as < 3 nM.

In the case of `c1cc(-c2c[nH]c3nccc(Oc4ccc5c(c4)CNCC5)c23)cc(NC[C@@H]2CCCO2)n1` [Example 18, (S)-N-((tetrahydrofuran-2-yl)methyl)-4-(4-((1,2,3,4-tetrahydroisoquinolin-7-yl)oxy)-1H-pyrrolo[2,3-b]pyridin-3-yl)pyridin-2-amine], the Ki (ROCK 2) is reported as < 3 nM and the Ki (ROCK 1) is reported as < 3 nM.

`c1cc(-c2c[nH]c3nccc(Oc4ccc5c(c4)CNCC5)c23)cc(NC[C@H]2CCCO2)n1` [Example 19, (R)-N-((tetrahydrofuran-2-yl)methyl)-4-(4-((1,2,3,4-tetrahydroisoquinolin-7-yl)oxy)-1H-pyrrolo[2,3-b]pyridin-3-yl)pyridin-2-amine] was tested, and the Ki (ROCK 2) was < 3 nM and the Ki (ROCK 1) was < 3 nM.

`COCCNc1cc(-c2c[nH]c3nccc(Oc4ccc5c(c4)CNCC5)c23)ccn1` [Example 20, N-(2-methoxyethyl)-4-(4-((1,2,3,4-tetrahydroisoquinolin-7-yl)oxy)-1H-pyrrolo[2,3-b]pyridin-3-yl)pyridin-2-amine] was tested, and the Ki (ROCK 2) was < 3 nM and the Ki (ROCK 1) was 3 to 30 nM.

In the case of `Cn1cc(-c2c[nH]c3nccc(Oc4ccc5c(c4)CNCC5)c23)cn1` [Example 21, 7-((3-(1-methyl-1H-pyrazol-4-yl)-1H-pyrrolo[2,3-b]pyridin-4-yl)oxy)-1,2,3,4-tetrahydroisoquinoline], the Ki (ROCK 2) is reported as < 3 nM and the Ki (ROCK 1) is reported as < 3 nM.

`NCc1ccc(Oc2ccnc3[nH]cc(-c4cnn(Cc5ccccc5)c4)c23)c(F)c1` [Example 22, (4-((3-(1-benzyl-1H-pyrazol-4-yl)-1H-pyrrolo[2,3-b]pyridin-4-yl)oxy)-3-fluorophenyl)methanamine] was tested, and the Ki (ROCK 2) was < 3 nM and the Ki (ROCK 1) was < 3 nM.

In the case of `NCc1ccc(Oc2ccnc3[nH]cc(-c4cnn(Cc5ccncc5)c4)c23)c(F)c1` [Example 23, (3-fluoro-4-((3-(1-(pyridin-4-ylmethyl)-1H-pyrazol-4-yl)-1H-pyrrolo[2,3-b]pyridin-4-yl)oxy)phenyl)methanamine], the Ki (ROCK 2) is reported as < 3 nM and the Ki (ROCK 1) is reported as 3 to 30 nM.

`NCc1ccc(Oc2ccnc3[nH]cc(-c4cnn(CC5CCOCC5)c4)c23)c(F)c1` [Example 24, (3-fluoro-4-((3-(1-((tetrahydro-2H-pyran-4-yl)methyl)-1H-pyrazol-4-yl)-1H-pyrrolo[2,3-b]pyridin-4-yl)oxy)phenyl)methanamine] was tested, and the Ki (ROCK 2) was < 3 nM and the Ki (ROCK 1) was 3 to 30 nM.

`c1ccc(CNc2cc(-c3c[nH]c4nccc(Oc5ccc6c(c5)CNCC6)c34)ncn2)cc1` [Example 25, N-benzyl-6-(4-((1,2,3,4-tetrahydroisoquinolin-7-yl)oxy)-1H-pyrrolo[2,3-b]pyridin-3-yl)pyrimidin-4-amine] was tested, and the Ki (ROCK 2) was < 3 nM and the Ki (ROCK 1) was < 3 nM.

`c1ccc(CNc2nccc(-c3c[nH]c4nccc(Oc5ccc6c(c5)CNCC6)c34)n2)cc1` [Example 26, N-benzyl-4-(4-((1,2,3,4-tetrahydroisoquinolin-7-yl)oxy)-1H-pyrrolo[2,3-b]pyridin-3-yl)pyrimidin-2-amine] was tested, and the Ki (ROCK 2) was < 3 nM and the Ki (ROCK 1) was < 3 nM.

In the case of `c1ccc(CNc2cccc(-c3c[nH]c4nccc(Oc5ccc6c(c5)CNCC6)c34)n2)cc1` [Example 27, N-benzyl-6-(4-((1,2,3,4-tetrahydroisoquinolin-7-yl)oxy)-1H-pyrrolo[2,3-b]pyridin-3-yl)pyridin-2-amine], the Ki (ROCK 2) is reported as > 30 nM and the Ki (ROCK 1) is reported as > 30 nM.

In the case of `c1ccc(CNc2ccnc(-c3c[nH]c4nccc(Oc5ccc6c(c5)CNCC6)c34)n2)cc1` [Example 28, N-benzyl-2-(4-((1,2,3,4-tetrahydroisoquinolin-7-yl)oxy)-1H-pyrrolo[2,3-b]pyridin-3-yl)pyrimidin-4-amine], the Ki (ROCK 2) is reported as > 30 nM and the Ki (ROCK 1) is reported as > 30 nM.

With `O=S(=O)(CCNc1cc(-c2c[nH]c3nccc(Oc4ccc5c(c4)CNCC5)c23)ncn1)c1ccccc1` [Example 29, N-(2-(phenylsulfonyl)ethyl)-6-(4-((1,2,3,4-tetrahydroisoquinolin-7-yl)oxy)-1H-pyrrolo[2,3-b]pyridin-3-yl)pyrimidin-4-amine] the Ki (ROCK 2) was < 3 nM and the Ki (ROCK 1) was < 3 nM.
